Experimental data as given in PubChem BioAssay (NCI).
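How tested: cells in 96-well plates exposed to compound for 48 hours at five concentrations. GI50 = concentration required for 50% inhibition of growth. TGI marks complete inhibition of growth.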

Tests used:
Assay in all cases: NCI tumour cell line growth inhibition, 48 h
SNB-19 CNS = test system: SNB-19 CNS
SF-268 CNS = test system: SF-268 CNS
HL-60(TB) leukemia = test system: HL-60(TB) leukemia
COLO 205 colon = test system: COLO 205 colon
HOP-62 NSCLC = test system: HOP-62 NSCLC
HCT-116 colon = test system: HCT-116 colon
EKVX NSCLC = test system: EKVX NSCLC
SK-MEL-2 melanoma = test system: SK-MEL-2 melanoma
MALME-3M melanoma = test system: MALME-3M melanoma
CCRF-CEM leukemia = test system: CCRF-CEM leukemia

OCNCCNc1nc2ccccc2c2[nH]c3ccccc3c12
GI50 (SNB-19 CNS): 2.1 µM
TGI (SNB-19 CNS): 11.7 µM
GI50 (SF-268 CNS): 1.36 µM
TGI (SF-268 CNS): 6.44 µM
GI50 (HL-60(TB) leukemia): 1.31 µM
TGI (HL-60(TB) leukemia): 3.93 µM
GI50 (COLO 205 colon): 1.76 µM
TGI (COLO 205 colon): > 50 µM
GI50 (HOP-62 NSCLC): 0.371 µM
TGI (HOP-62 NSCLC): 1.92 µM
GI50 (HCT-116 colon): 0.186 µM
TGI (HCT-116 colon): 1.14 µM
GI50 (EKVX NSCLC): 1.18 µM
TGI (EKVX NSCLC): 3.25 µM
GI50 (SK-MEL-2 melanoma): 2.25 µM
TGI (SK-MEL-2 melanoma): 24 µM

C/C=C1\C(=O)OC2CCN3CCC(COC(=O)C(C)(O)C(C)C1O)C23 (centres undefined)
TGI (MALME-3M melanoma): > 100 µM
TGI (SNB-19 CNS): > 100 µM
TGI (SF-268 CNS): > 100 µM
TGI (HL-60(TB) leukemia): > 100 µM
TGI (COLO 205 colon): > 100 µM
TGI (HCT-116 colon): > 100 µM
TGI (EKVX NSCLC): > 100 µM
TGI (SK-MEL-2 melanoma): > 100 µM

CC1(C)CC[C@]2(C(N)=O)CC[C@]3(C)C(=CC[C@@H]4[C@@]5(C)C/C(=C/c6ccncc6)C(=O)C(C)(C)[C@@H]5CC[C@]43C)[C@@H]2C1
GI50 (CCRF-CEM leukemia): 2.13 µM
TGI (CCRF-CEM leukemia): 5.45 µM
GI50 (MALME-3M melanoma): 1.71 µM
TGI (MALME-3M melanoma): 3.27 µM
GI50 (SNB-19 CNS): 1.59 µM
TGI (SNB-19 CNS): 3.24 µM
GI50 (SF-268 CNS): 2.15 µM
TGI (SF-268 CNS): 5.49 µM
GI50 (HL-60(TB) leukemia): 1.98 µM
TGI (HL-60(TB) leukemia): 4.59 µM
GI50 (HOP-62 NSCLC): 2.01 µM
TGI (HOP-62 NSCLC): 4.71 µM
GI50 (HCT-116 colon): 1.49 µM
TGI (HCT-116 colon): 2.99 µM
GI50 (EKVX NSCLC): 2.44 µM
TGI (EKVX NSCLC): 9.46 µM
GI50 (SK-MEL-2 melanoma): 1.92 µM
TGI (SK-MEL-2 melanoma): 3.97 µM

CC1=C(C(=O)Nc2ccc(Cl)c(Cl)c2)C(c2ccccc2O)NC(=O)N1 (centres undefined)
GI50 (CCRF-CEM leukemia): > 50 µM
TGI (CCRF-CEM leukemia): > 50 µM
GI50 (SNB-19 CNS): > 50 µM
TGI (SNB-19 CNS): > 50 µM
GI50 (SF-268 CNS): 46.9 µM
TGI (SF-268 CNS): > 50 µM
GI50 (HL-60(TB) leukemia): > 50 µM
TGI (HL-60(TB) leukemia): > 50 µM
GI50 (COLO 205 colon): 28.3 µM
TGI (COLO 205 colon): > 50 µM
GI50 (HOP-62 NSCLC): > 50 µM
TGI (HOP-62 NSCLC): > 50 µM
GI50 (EKVX NSCLC): 28.6 µM
TGI (EKVX NSCLC): > 50 µM
GI50 (SK-MEL-2 melanoma): > 50 µM
TGI (SK-MEL-2 melanoma): > 50 µM

CN1CCN(c2nc(-c3ccncc3)nc3sc4c(c23)CCCCCC4)CC1
GI50 (CCRF-CEM leukemia): 8.05 µM
TGI (CCRF-CEM leukemia): 28.8 µM
GI50 (SF-268 CNS): 5.34 µM
TGI (SF-268 CNS): 20.7 µM
GI50 (HL-60(TB) leukemia): 12.6 µM
TGI (HL-60(TB) leukemia): 29.8 µM
GI50 (COLO 205 colon): 4.94 µM
TGI (COLO 205 colon): 17.2 µM
GI50 (HOP-62 NSCLC): 6.5 µM
TGI (HOP-62 NSCLC): 19.4 µM
GI50 (HCT-116 colon): 5.13 µM
TGI (HCT-116 colon): 17.7 µM
GI50 (SK-MEL-2 melanoma): 14.6 µM
TGI (SK-MEL-2 melanoma): 28.2 µM

Cc1c(C(=O)CSc2nc3ccccc3[nH]2)c(=O)n(-c2ccccc2)n1C
TGI (CCRF-CEM leukemia): > 100 µM
TGI (MALME-3M melanoma): > 100 µM
TGI (SNB-19 CNS): > 100 µM
TGI (SF-268 CNS): > 100 µM
TGI (HL-60(TB) leukemia): > 100 µM
TGI (COLO 205 colon): > 100 µM
TGI (HOP-62 NSCLC): > 100 µM
TGI (HCT-116 colon): > 100 µM
TGI (SK-MEL-2 melanoma): > 100 µM

CCCCCCCCCCCCOP(N)(=O)OCCCCCCCCCCCC
TGI (CCRF-CEM leukemia): > 100 µM
TGI (MALME-3M melanoma): > 100 µM
TGI (SNB-19 CNS): > 100 µM
TGI (SF-268 CNS): > 100 µM
TGI (HL-60(TB) leukemia): > 100 µM
TGI (COLO 205 colon): > 100 µM
TGI (HOP-62 NSCLC): > 100 µM
TGI (HCT-116 colon): > 100 µM
TGI (EKVX NSCLC): > 100 µM

COc1nc(NC2OC(COC(C)=O)C(OC(C)=O)C(OC(C)=O)C2OC(C)=O)c(-c2csc(N)n2)c(=O)n1C (centres undefined)
TGI (CCRF-CEM leukemia): > 100 µM
TGI (MALME-3M melanoma): 78.8 µM
TGI (SNB-19 CNS): > 100 µM
TGI (SF-268 CNS): > 100 µM
TGI (COLO 205 colon): > 100 µM
TGI (HOP-62 NSCLC): > 100 µM
TGI (HCT-116 colon): > 100 µM
TGI (SK-MEL-2 melanoma): 90.2 µM

COc1ccc(S(=O)(=O)N(C)CC(=O)O)cc1
TGI (CCRF-CEM leukemia): > 100 µM
TGI (MALME-3M melanoma): > 100 µM
TGI (SNB-19 CNS): > 100 µM
TGI (SF-268 CNS): > 100 µM
TGI (HL-60(TB) leukemia): > 100 µM
TGI (COLO 205 colon): > 100 µM
TGI (EKVX NSCLC): > 100 µM
TGI (SK-MEL-2 melanoma): > 100 µM

C[N+](C)(C)CC1CCCC(C[N+](C)(C)C)C1O (centres undefined)
TGI (CCRF-CEM leukemia): > 100 µM
TGI (MALME-3M melanoma): > 100 µM
TGI (SF-268 CNS): > 100 µM
TGI (HL-60(TB) leukemia): > 100 µM
TGI (COLO 205 colon): > 100 µM
TGI (HOP-62 NSCLC): > 100 µM
TGI (HCT-116 colon): > 100 µM
TGI (EKVX NSCLC): > 100 µM
TGI (SK-MEL-2 melanoma): > 100 µM

FC1OC2OC1C(OCc1ccccc1)C(OCc1ccccc1)C2OCc1ccccc1 (centres undefined)
TGI (CCRF-CEM leukemia): 75.8 µM
TGI (MALME-3M melanoma): > 100 µM
TGI (SNB-19 CNS): > 100 µM
TGI (SF-268 CNS): > 100 µM
TGI (HL-60(TB) leukemia): 62.9 µM
TGI (COLO 205 colon): > 100 µM
TGI (HCT-116 colon): 63.2 µM
TGI (EKVX NSCLC): > 100 µM
TGI (SK-MEL-2 melanoma): > 100 µM

CC(=O)OC1CC2C(=O)C(=O)C1(C)C2(C)C (centres undefined)
TGI (CCRF-CEM leukemia): > 100 µM
TGI (MALME-3M melanoma): > 100 µM
TGI (SNB-19 CNS): > 100 µM
TGI (SF-268 CNS): > 100 µM
TGI (COLO 205 colon): > 100 µM
TGI (HOP-62 NSCLC): > 100 µM
TGI (HCT-116 colon): > 100 µM
TGI (EKVX NSCLC): > 100 µM

COc1cc([N+](=O)[O-])c2ncccc2c1[N+](=O)[O-]
GI50 (CCRF-CEM leukemia): 3.44 µM
TGI (CCRF-CEM leukemia): 28.6 µM
GI50 (SNB-19 CNS): 15.9 µM
TGI (SNB-19 CNS): 30.8 µM
GI50 (SF-268 CNS): 3.72 µM
TGI (SF-268 CNS): 15.3 µM
GI50 (HL-60(TB) leukemia): 3.39 µM
TGI (HL-60(TB) leukemia): > 100 µM
GI50 (COLO 205 colon): 10.1 µM
TGI (COLO 205 colon): 22.9 µM
GI50 (HOP-62 NSCLC): 11.7 µM
TGI (HOP-62 NSCLC): 24.8 µM
GI50 (HCT-116 colon): 3.47 µM
TGI (HCT-116 colon): 11.9 µM
GI50 (EKVX NSCLC): 15.4 µM
TGI (EKVX NSCLC): 29.4 µM
GI50 (SK-MEL-2 melanoma): 4.17 µM
TGI (SK-MEL-2 melanoma): 12.3 µM

Nc1[nH]c(=O)ncc1CO
GI50 (CCRF-CEM leukemia): > 100 µM
TGI (CCRF-CEM leukemia): > 100 µM
GI50 (MALME-3M melanoma): > 100 µM
TGI (MALME-3M melanoma): > 100 µM
GI50 (SNB-19 CNS): > 100 µM
TGI (SNB-19 CNS): > 100 µM
GI50 (SF-268 CNS): > 100 µM
TGI (SF-268 CNS): > 100 µM
GI50 (HL-60(TB) leukemia): > 100 µM
TGI (HL-60(TB) leukemia): > 100 µM
GI50 (COLO 205 colon): > 100 µM
TGI (COLO 205 colon): > 100 µM
GI50 (HOP-62 NSCLC): > 100 µM
TGI (HOP-62 NSCLC): > 100 µM
GI50 (HCT-116 colon): > 100 µM
TGI (HCT-116 colon): > 100 µM
GI50 (SK-MEL-2 melanoma): > 100 µM
TGI (SK-MEL-2 melanoma): > 100 µM

CCC1CNC(=O)CC1CC(=O)OC (centres undefined)
TGI (MALME-3M melanoma): > 100 µM
TGI (SNB-19 CNS): > 100 µM
TGI (SF-268 CNS): > 100 µM
TGI (HL-60(TB) leukemia): > 100 µM
TGI (HOP-62 NSCLC): > 100 µM
TGI (HCT-116 colon): > 100 µM
TGI (EKVX NSCLC): > 100 µM
TGI (SK-MEL-2 melanoma): > 100 µM

COc1cc(NC(=O)Nc2cnc(Nc3ccc(N4CCOCC4)cc3)nc2Oc2cccc(OC)c2)cc(OC)c1
GI50 (CCRF-CEM leukemia): > 50 µM
TGI (CCRF-CEM leukemia): > 50 µM
GI50 (MALME-3M melanoma): 1.28 µM
TGI (MALME-3M melanoma): 3.82 µM
GI50 (SNB-19 CNS): 5.73 µM
TGI (SNB-19 CNS): > 50 µM
GI50 (SF-268 CNS): 2.07 µM
TGI (SF-268 CNS): 12.3 µM
GI50 (HL-60(TB) leukemia): 2.76 µM
TGI (HL-60(TB) leukemia): > 50 µM
GI50 (HOP-62 NSCLC): 1.76 µM
TGI (HOP-62 NSCLC): 6.9 µM
GI50 (HCT-116 colon): 1.1 µM
TGI (HCT-116 colon): 2.74 µM
GI50 (EKVX NSCLC): 2.17 µM
TGI (EKVX NSCLC): 24.5 µM
GI50 (SK-MEL-2 melanoma): 1.74 µM
TGI (SK-MEL-2 melanoma): 8.67 µM

O=C(Cc1ccccc1)NN1C(=O)/C(=C\c2ccc(O)cc2)SC1=Nc1ccccc1
TGI (CCRF-CEM leukemia): > 100 µM
TGI (SNB-19 CNS): > 100 µM
TGI (SF-268 CNS): > 100 µM
TGI (HL-60(TB) leukemia): > 100 µM
TGI (COLO 205 colon): > 100 µM
TGI (HOP-62 NSCLC): > 100 µM
TGI (HCT-116 colon): > 100 µM
TGI (EKVX NSCLC): > 100 µM
TGI (SK-MEL-2 melanoma): > 100 µM

O=c1cc(-c2ccccn2)[nH]c2ccc(Cl)cc12
TGI (CCRF-CEM leukemia): > 100 µM
TGI (MALME-3M melanoma): 62.5 µM
TGI (SNB-19 CNS): > 100 µM
GI50 (SF-268 CNS): 23.4 µM
TGI (SF-268 CNS): 66.7 µM
TGI (HL-60(TB) leukemia): > 100 µM
TGI (COLO 205 colon): > 100 µM
TGI (HOP-62 NSCLC): > 100 µM
GI50 (HCT-116 colon): 26 µM
TGI (HCT-116 colon): > 100 µM
TGI (EKVX NSCLC): > 100 µM
